US12667106B2, “Stabilized mutants of quorum quenching lactonase and use thereof in treatment of pathogens” (priority 2019, dated 2026)

Assays:
Erwinia amylovora [1] = format: in vivo; conditions: 6 days post inoculation, 4 ppm, growth chamber
Erwinia amylovora [2] = format: in vivo; conditions: field, 13 days post inoculation, FIG. 5C

## CCn1cc(C(=O)O)c(=O)c2cc3c(cc21)OCO3 [oxolinic acid]
Erwinia amylovora [1]
  inhibition of flower infection relative to untreated control: 45%
Erwinia amylovora [2]
  inhibition of fire blight symptoms: 70%
